A word on the melting point: it is the temperature, or range, at which the solid turns liquid. Broadly, the EC50 is the concentration that produces a half-maximal response.

Where two headings read alike, the source gives them in different places.

The results in this text go back to paper PMC4264192, “Synthesis and Biological Evaluation of 2-Thioxopyrimidin-4(1H)-one Derivatives as Potential Non-Nucleoside HIV-1 Reverse Transcriptase Inhibitors” (International Journal of Molecular Sciences, 2014).

Data set [1] is described as follows: Cytotoxic effect in uninfected MT-4 cultures. The format is cell-based. To be noted: human, uninfected MT-4 cells; read-out: CC50, 50% cytotoxic concentration.
The next data set concerns HIV-1. The experiment in a line: Inhibition of HIV-1 replication in MT-4 cells (HIV-1 antigen ELISA or MTT). The format is cell-based, human immunodeficiency virus type 1. The following applies: for IC50: Human immunodeficiency virus 1, MT4, 144 h, read-out: IC50, 50% inhibitory concentration (anti-HIV-1 activity); for Selectivity index (SI), CC50/IC50 / activity against HIV-1 replication (in words): MT-4 cells; for Selectivity index (SI), CC50/IC50: ratio CC50/IC50; for activity against HIV-1 replication (in words): less than 30% reduction of HIV expression considered without biological activity; for EC50: Human immunodeficiency virus 1, MT4, read-out: EC50 against wild-type HIV-1. The text has this:
Compounds mediating less than 30% reduction of HIV expression were considered without biological activity.

Where [2] appears, read: HIV-1 in MT-4 cells, six days, 0.005 MOI.

In the case of `Cc1cn([C@H]2C[C@H](N=[N+]=[N-])[C@@H](CO)O2)c(=O)[nH]c1=O` [AZT, azidothymidine, reference compound], the CC50 at 6 days in data set [1] was determined as 52 µM. The IC50 in the data set on HIV-1 (setting [2]) turned out to be 40 nM. The “Selectivity index (SI), CC50/IC50” value in the data set on HIV-1 was 1,300.

Take `C=CCc1c(Cc2ccccc2)nc(SC)[nH]c1=O` [Compound 2a, 5-Allyl 6-(benzyl)-2-(methylthio)pyrimidin-4(3H)-one]: the melting point fell in the range of 214 to 216 °C. In data set [1], the CC50 at 6 days was more than 100 µM. The IC50 with HIV-1 (setting [2]) stood at 26800 nM. In addition, the “Selectivity index (SI), CC50/IC50” value in the data set on HIV-1 is recorded as more than 3.

Take `C=CCc1c(Cc2ccccc2)nc(SCCO)[nH]c1=O` [Compound 2b, 2-(2-Hydroxyethylthio)-5-allyl-6-benzylpyrimidin-4(3H)-one]: the melting point lay in the range of 164 to 166 °C.

For the compound `C=CCc1c(Cc2ccccc2)nc(SCCCBr)[nH]c1=O` [Compound 2c, 2-(3-Bromopropylthio)-5-allyl-6-benzylpyrimidin-4(3H)-one], the melting point was 138 to 140 °C. Further, the “activity against HIV-1 replication (in words)” value (from here on “activity”) in the data set on HIV-1 is “inactive”.

The compound `C=CCc1c(Cc2ccccc2)nc(SCCCCCC)[nH]c1=O` [Compound 2d, 5-Allyl-6-benzyl-2-(hexylthio)pyrimidin-4(3H)-one] displayed a melting point of 153 to 155 °C. In data set [1], the CC50 at 6 days came out at 35 µM. Besides, in the data set with HIV-1, the IC50 came to 7000 nM.

As to `C=CCSc1nc(Cc2ccccc2)c(CC=C)c(=O)[nH]1` [Compound 2e, 5-Allyl 6-benzyl-2-(allylthio)pyrimidin-4(3H)-one], the melting point lay in the range of 114 to 116 °C. Moreover, in data set [1], the CC50 at 6 days is 25 µM. In the data set with HIV-1, the IC50 was determined as 2500 nM and the EC50 is 2500 nM.

`C=CCc1c(Cc2ccccc2)nc(SCCOCOC)[nH]c1=O` [Compound 2f, 5-Allyl-6-benzyl-2-(2-(methoxymethoxy)ethylthio)pyrimidin-4(3H)-one] returned a melting point of 188 to 190 °C.

The compound `C=CCc1c(Cc2ccccc2)nc(SCCOCOCCBr)[nH]c1=O` [Compound 2g, 5-Allyl-6-benzyl-2-(2-((2-bromoethoxy)methoxy)ethylthio)pyrimidin-4(3H)-one] had a melting point of 192 to 194 °C.

`C=CCc1c(Cc2ccccc2)nc(SCC(C)C)[nH]c1=O` [Compound 2h, 5-Allyl-6-benzyl-2-(isobutylthio)pyrimidin-4(3H)-one]: the melting point lay within 134 to 136 °C. The CC50 at 6 days in data set [1] is more than 100 µM. In addition, in the data set on HIV-1 (setting [2]), the IC50 amounted to 1000 nM. Moreover, the “Selectivity index (SI), CC50/IC50” value in the data set with HIV-1 was more than 100.

`C=CCc1c(Cc2ccccc2)nc(SCC(CC)CC)[nH]c1=O` [Compound 2i, 5-Allyl-6-benzyl-2-(2-ethylbutylthio)pyrimidin-4(3H)-one] returned a melting point of 141 to 143 °C.

As for `C=CCc1c(Cc2ccccc2)nc(SC2CCCC2)[nH]c1=O` [Compound 2j, 5-Allyl 6-benzyl-2-(cyclopentylthio)pyrimidin-4(3H)-one], the CC50 at 6 days in data set [1] is more than 100 µM. Further, the IC50 in the data set on HIV-1 (setting [2]) was determined as 2600 nM. Moreover, the EC50 in the data set on HIV-1 stood at 2600 nM.

As for `C=CCc1c(Cc2ccccc2)nc(SC2CCOC2=O)[nH]c1=O` (stereo not shown) [Compound 2k, 5-Allyl-6-benzyl-2-(tetrahydro-2-oxofuran-3-ylthio)pyrimidin-4(3H)-one], the melting point lay in the range of 153 to 155 °C. In the data set on HIV-1, the “activity” value is “inactive”.

Take `C=CCc1c(Cc2ccccc2)nc(SCC(=O)OC)[nH]c1=O` [Compound 3a, 5-Allyl-6-benzyl-2-(methylacetatethio)pyrimidin-4(3H)-one]: the melting point was in the range of 117 to 119 °C. In data set [1], the CC50 at 6 days is more than 100 µM. Besides, the IC50 in the data set on HIV-1 (setting [2]) is 35000 nM. In addition, in the data set with HIV-1, the “Selectivity index (SI), CC50/IC50” value was more than 2.

Take `C=CCc1c(Cc2ccccc2)nc(SCC(=O)OCC)[nH]c1=O` [Compound 3b, 5-Allyl-6-benzyl-2-(ethylacetatethio)pyrimidin-4(3H)-one]: the melting point was in the range of 118 to 120 °C. The “activity” value with HIV-1 was “inactive”.

With `C=CCc1c(Cc2ccccc2)nc(SCC(=O)NC)[nH]c1=O` [Compound 4, 2-(5-Allyl-4-benzyl-1,6-dihydro-6-oxopyrimidin-2-ylthio)-N-methylacetamide], the “activity” value in the data set on HIV-1 was “inactive”.

In the case of `C=CCc1c(Cc2ccccc2)nc(SC2CCCCC2)[nH]c1=O` [Compound 6, 5-Allyl 6-benzyl-2-(cyclohexylthio)pyrimidin-4(3H)-one], the melting point is 138 to 140 °C.

`O=c1[nH]c([S+]([O-])C2CCCCC2)nc(Cc2ccccc2)c1CC1CO1` (stereo not shown) [Compound 7, 6-Benzyl-2-(cyclohexylsulfinyl)-5-((oxiran-2-yl)methyl)pyrimidin-4(3H)-one] displayed a melting point of 190 to 192 °C.

With `C=CCc1c(Cc2ccccc2)nc(SC2CCCCC2)[nH]c1=S` [Compound 8, 5-Allyl-6-benzyl-2-(cyclohexylthio)pyrimidine-4(3H)-thione], the melting point is 143 to 145 °C. In data set [1], the CC50 at 6 days was more than 100 µM. The IC50 with HIV-1 (setting [2]) is 3900 nM. Besides, in the data set on HIV-1, the “Selectivity index (SI), CC50/IC50” value is more than 25.

`C=CCc1c(Cc2ccccc2)nc(SCC(OCC)OCC)[nH]c1=O` [Compound 9, 5-Allyl 6-benzyl-2-(2,2-diethoxyethylthio)pyrimidin-4(3H)-one] yielded a melting point of 156 to 158 °C. Also, in the data set on HIV-1, the “activity” value is “inactive”.

`C=CCc1c(Cc2ccccc2)n2c(nc1=O)SCC2OCC` (stereo not shown) [Compound 10, 6-Allyl-5-benzyl-3-ethoxy-2,3-dihydrothiazolo[3,2-a]pyrimidin-7-one] came in with a melting point of 162 to 164 °C.

Compound `C=CCc1c(Cc2ccccc2)nc(SCSC)[nH]c1=O` [Compound 11a, 2-((Methylthio)methylthio)-5-allyl-6-benzylpyrimidin-4(3H)-one] came in with a melting point of 218 to 220 °C. Also, the CC50 at 6 days in data set [1] was more than 100 µM. Further, in the data set on HIV-1 (setting [2]), the IC50 worked out at 3160 nM. Also, in the data set with HIV-1, the “Selectivity index (SI), CC50/IC50” value was more than 31.

`C=CCc1c(Cc2ccccc2)nc(SCOCC)[nH]c1=O` [Compound 11b, 5-Allyl-6-benzyl-2-(ethoxymethylthio)pyrimidin-4(3H)-one] gave a melting point of 142 to 144 °C.

Turning to `C=CCc1c(Cc2ccccc2)nc(SCCCO)[nH]c1=O` [Compound 11c, 2-(3-Hydroxypropylthio)-5-allyl-6-benzylpyrimidin-4(3H)-one], the melting point lay in the range of 123 to 125 °C. The CC50 at 6 days in data set [1] is more than 100 µM. Besides, the IC50 in the data set with HIV-1 (setting [2]) was found to be 320 nM. In addition, in the data set with HIV-1, the concentration for a half-maximal effect (EC50) amounted to 320 nM and the “Selectivity index (SI), CC50/IC50” value is on record as more than 312.

On to `CCOCn1c(Cc2ccccc2)c(C(C)C)c(=O)[nH]c1=O` [MKC-442, 6-benzyl-1-(ethoxymethyl)-5-isopropylpyrimidine-2,4-dione, reference compound], for which the CC50 at 6 days in data set [1] was 141 µM. Also, in the data set on HIV-1 (setting [2]), the IC50 was 5 nM. Moreover, the “Selectivity index (SI), CC50/IC50” value with HIV-1 is 28,000.
